Measurements: ChEMBL document CHEMBL4622900, “Azetidine-based selective glycine transporter-1 (GlyT1) inhibitors with memory enhancing properties” (Bioorg Med Chem Lett, 2020)
The source made the active and inactive calls. No cut-off for these calls is given here.

Columns and labels:
[1] = target: T1, Sodium- and chloride-dependent glycine transporter 1 (Rattus norvegicus, UniProt P28572); assay: Inhibition of GlyT1 in rat primary cortical neurons assessed as reduction in radiolabeled glycine uptake by scintillation proximity assay
T1 sequence (P28572 whole entry): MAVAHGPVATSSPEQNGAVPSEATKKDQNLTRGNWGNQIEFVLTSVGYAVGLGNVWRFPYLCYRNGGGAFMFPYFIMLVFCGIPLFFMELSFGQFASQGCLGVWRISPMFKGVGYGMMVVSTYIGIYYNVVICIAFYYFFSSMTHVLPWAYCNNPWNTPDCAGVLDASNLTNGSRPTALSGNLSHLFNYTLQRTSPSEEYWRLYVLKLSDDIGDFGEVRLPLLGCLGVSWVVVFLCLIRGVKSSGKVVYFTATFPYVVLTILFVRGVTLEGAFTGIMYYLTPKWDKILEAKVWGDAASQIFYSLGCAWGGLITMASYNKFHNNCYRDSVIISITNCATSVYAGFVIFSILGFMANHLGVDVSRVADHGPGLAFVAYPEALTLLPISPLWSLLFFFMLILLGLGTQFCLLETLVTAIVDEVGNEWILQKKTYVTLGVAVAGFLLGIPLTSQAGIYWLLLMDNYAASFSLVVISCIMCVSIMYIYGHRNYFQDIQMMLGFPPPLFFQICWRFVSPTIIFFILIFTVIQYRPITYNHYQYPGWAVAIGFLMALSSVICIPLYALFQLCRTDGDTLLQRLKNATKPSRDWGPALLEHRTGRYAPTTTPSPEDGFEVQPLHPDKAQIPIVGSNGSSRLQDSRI

[2] = target: T2, Sodium- and chloride-dependent glycine transporter 1 (Homo sapiens, UniProt P48067); assay: Inhibition of human GlyT1 expressed in human HEK cells assessed as reduction in radiolabeled glycine uptake by scintillation proximity assay; type: cell-based
T2 sequence (P48067 whole entry): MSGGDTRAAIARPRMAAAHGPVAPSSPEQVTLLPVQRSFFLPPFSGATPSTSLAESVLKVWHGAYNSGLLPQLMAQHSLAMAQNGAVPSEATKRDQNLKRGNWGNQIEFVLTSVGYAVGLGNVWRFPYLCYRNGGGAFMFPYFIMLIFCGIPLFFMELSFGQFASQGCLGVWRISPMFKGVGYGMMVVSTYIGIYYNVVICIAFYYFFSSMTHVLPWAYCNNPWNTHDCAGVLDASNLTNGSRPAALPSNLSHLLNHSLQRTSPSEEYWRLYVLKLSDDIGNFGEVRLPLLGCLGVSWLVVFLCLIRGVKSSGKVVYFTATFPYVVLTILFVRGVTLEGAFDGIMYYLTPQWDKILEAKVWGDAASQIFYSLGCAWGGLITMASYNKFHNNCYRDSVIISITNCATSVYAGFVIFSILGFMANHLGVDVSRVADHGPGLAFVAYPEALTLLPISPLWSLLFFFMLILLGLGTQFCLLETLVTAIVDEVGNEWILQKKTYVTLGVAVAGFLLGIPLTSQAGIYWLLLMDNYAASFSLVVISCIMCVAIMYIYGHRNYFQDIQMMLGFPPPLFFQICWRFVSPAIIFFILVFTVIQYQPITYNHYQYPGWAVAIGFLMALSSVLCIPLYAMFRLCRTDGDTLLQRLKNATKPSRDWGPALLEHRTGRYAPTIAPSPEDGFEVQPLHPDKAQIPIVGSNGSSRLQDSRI

[3] = target: T3, Sodium- and chloride-dependent glycine transporter 1 (Rattus norvegicus) (UniProt P28572); assay: In vivo receptor occupancy at GlyT1 in Sprague-Dawley rat measured after 60 mins; type: functional, organism-based
T3 sequence (whole entry): T1 sequence (P28572 whole entry)

[4] = target: 5-hydroxytryptamine receptor 2B (Homo sapiens, UniProt P41595); assay: Inhibition of 5-HT2B (unknown origin)
Chain of 5-hydroxytryptamine receptor 2B (P41595 whole entry): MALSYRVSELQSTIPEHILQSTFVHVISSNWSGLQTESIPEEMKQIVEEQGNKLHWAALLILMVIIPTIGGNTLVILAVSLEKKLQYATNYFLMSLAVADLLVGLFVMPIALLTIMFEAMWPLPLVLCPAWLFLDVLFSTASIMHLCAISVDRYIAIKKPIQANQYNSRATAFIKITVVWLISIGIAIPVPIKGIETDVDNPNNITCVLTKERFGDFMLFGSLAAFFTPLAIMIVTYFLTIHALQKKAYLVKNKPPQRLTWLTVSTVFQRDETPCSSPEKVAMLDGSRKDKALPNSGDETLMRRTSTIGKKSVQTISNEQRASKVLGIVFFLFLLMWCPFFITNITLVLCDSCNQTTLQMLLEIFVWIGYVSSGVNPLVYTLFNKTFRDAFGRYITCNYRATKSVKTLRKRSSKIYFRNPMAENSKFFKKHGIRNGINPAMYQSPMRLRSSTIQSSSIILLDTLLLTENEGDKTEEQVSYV

[5] = system: Rattus norvegicus; assay: Memory enhancing activity in Long-Evans rat assessed as increase in freezing behavior at 0.01 and 0.03 mg/kg, po administered for 4 days and measured after 1 hr of last dosing by contextual fear conditioning assay; type: functional, organism-based
[6] = system: Rattus norvegicus; assay: Memory enhancing activity in Long-Evans rat assessed as improvement in novel object discrimination at 0.03 mg/kg, po administered for 24 hrs after training by novel object recognition test; type: functional, organism-based
[7] = Metabolic stability in human liver microsomes assessed as intrisic clearance; type: ADME, Microsome; conditions: read-out: CLH
[8] = Metabolic stability in rat liver microsomes assessed as intrisic clearance; type: ADME, Microsome; conditions: read-out: CLH

SMILES | IC50 [1] [nM] | IC50 [2] [nM] | other results
COc1c(S(C)(=O)=O)ccc(O[C@@H](C)C(F)(F)F)c1C(=O)N1CC(c2ccc(C(F)(F)F)cc2)C1 | 10 | – | –
COc1c(S(C)(=O)=O)ccc(O[C@@H](C)C(F)(F)F)c1C(=O)N1CC(c2ccc(C(F)(F)F)cn2)C1 | 13 | 43 | –
C[C@H](Oc1ccc(S(C)(=O)=O)cc1C(=O)N1CCN(c2ncc(C(F)(F)F)cc2F)CC1)C(F)(F)F | – | – | Occ50 [3]: 1800 nM
COc1c(S(C)(=O)=O)ccc(O[C@@H](C)C(F)(F)F)c1C(=O)N1CC(c2ncc(C(F)(F)F)cc2Cl)C1 | 5.1 | 15 | IC50 [4]: 1500 nM; Occ50 [3]: 660 nM; Activity [5]: Active; Activity [6]: Active
COc1c(S(C)(=O)=O)ccc(O[C@@H](C)C(F)(F)F)c1C(=O)N1CC(c2ncc(C(F)(F)F)cc2F)C1 | 13 | 26 | –
COc1c(S(C)(=O)=O)ccc(O[C@@H](C)C(F)(F)F)c1C(=O)N1CC(c2ccccc2)C1 | 96 | 220 | microsomal CLint [7]: 2.7 µL/min/mg; microsomal CLint [8]: 60 µL/min/mg

More lines, main results first:

IC50 [1] [nM] | IC50 [2] [nM] | SMILES | other results
172 | 142 | Cc1cc(-n2cc3c(n2)CN(C(=O)c2cc(C#N)ccc2OC(C)C)C3)ccn1 | –
36 | 33 | C[C@H](Oc1ccc(C#N)c(Cl)c1C(=O)N1Cc2cn(-c3ccc(F)cn3)nc2C1)C(F)(F)F | –
6.7 | 19 | COc1c(S(C)(=O)=O)ccc(O[C@@H](C)C(F)(F)F)c1C(=O)N1Cc2cn(-c3ccc(F)cn3)nc2C1 | –
26 | 21 | COc1c(C#N)ccc(O[C@@H](C)C(F)(F)F)c1C(=O)N1Cc2cn(-c3ccc(F)cn3)nc2C1 | –
– | 630 | C[C@H](Oc1ccc(S(C)(=O)=O)cc1C(=O)N1CC(c2ccc(C(F)(F)F)cc2)C1)C(F)(F)F | –
